≈ marks a conversion by molar mass, not a printed value. Where two headings read alike, the source gives them in different places.
Test system: HIV-1
Experiment: PBMC assay, virus production by reverse transcriptase activity
Format: cell-based
Source text: Method 2: PBMC Assay Method (Peripheral Blood Mononuclear cell)—Description
This assay addresses the issue of providing a rationale for further evaluation of the compound by providing evidence of in vitro anti-HIV activity against a low passage clinical strain of HIV-1. These fresh human peripheral blood mononuclear cell assays use fresh human cells obtained from the American Red Cross from uninfected, normal human donors. Mononuclear cells from these blood samples are isolated by centrifugation and infected with low passage clinical strains of HIV-1 which have been obtained by culture of blood cells from HIV-infected patients with uninfected PBMCs. Since the PBMCs are not killed by HIV infection, endpoint quantification is performed by measurement of virus production in each well by reverse transcriptase assay or p24 ELISA. These assays provide evidence that the test compounds will have efficacy against viruses, which will likely be encountered in patients without genetic changes, introduced by passage in cell culture.
Thus, PBMCs assay measures the amount of virus released from the infected cells into the tissue culture supernatant. The activity of the test compound is measured by its ability to reduce the level of virus production relative to the virus controls (cells+virus with no added compound). In PBMC culture we use reverse transcriptase activity in the supernatant to quantify the amount of virus production from the infected cells. Endpoint quantification is performed at 6 days post-infection.
Fresh human peripheral blood lymphocytes (PBL) are isolated from voluntary Red Cross donors, seronegative for HIV and HBV. Leukophoresed blood is diluted 1:1 with Dulbecco's phosphate buffered saline (PBS), layered over 14 mL of Ficoll-Hypaque density gradient in a 50 mL centrifuge tube. Tubes are then centrifuged for 30 minutes at 600×g. Banded PBLs are gently aspirated from the resulting interface and subsequently washed 2× with PBS by low speed centrifugation. […] After incubation, PBLs are centrifuged and reset in RPMI 1640 with 15% FBS, 2 mM L-glutamine, 100 U/mL. penicillin, 100 ug/mL streptomycin, 10 ug/mL gentamycin, and 20 U/mL recombinant human IL-2. PBLs are maintained in this medium at a concentration of 1-2×10E6/mL with bi-weekly medium changes, until use in assay protocol. For the PBL assay, PHA-P stimulated cells from at least two normal donors are pooled, set in fresh medium at 2×10E6/mL and plated in the interior wells of a 96 well round bottom microplate at 50 μL/well. Test drug dilutions are prepared at a 2× concentration in microtiter tubes and 100 μL of each concentration is placed in appropriate wells in a standard format. 50 μL of a predetermined dilution of virus stock is placed in each test well. Wells with cells and virus alone are used for virus control. Separate plates are identically set without virus for drug cytotoxicity studies using an XTT assay system.
In the standard PBL assay (MOI: 0.2), the assay was ended on day 7 following collection of cell free supernatant samples for reverse transcriptase activity assay. In the low MOI PBL assay (MOI: 0.02), supernatant samples were collected on day 6, day 11, and day 14 post-infection and analyzed for RT activity.

N=C(NCCCCCCNC(=N)NC(=N)N1CCN(c2cc3c(cc2F)c(=O)c(C(=O)O)cn3C2CC2)CC1)NC(=N)N1CCN(c2cc3c(cc2F)c(=O)c(C(=O)O)cn3C2CC2)CC1 [BVS-10A]
RT ACTIVITY MEAN (0.01 μg/ml, ROJO in PBMC): 6532.7 cpm | RT ACTIVITY MEAN (0.032 μg/ml, ROJO in PBMC): 7531.7 cpm | RT ACTIVITY MEAN (0.1 μg/ml, ROJO in PBMC): 5919.0 cpm | RT ACTIVITY MEAN (0.32 μg/ml, ROJO in PBMC): 5899.7 cpm | RT ACTIVITY MEAN (1 μg/ml, ROJO in PBMC): 6546.7 cpm | RT ACTIVITY MEAN (3.2 μg/ml, ROJO in PBMC): 2327.0 cpm | RT ACTIVITY MEAN (10 μg/ml, ROJO in PBMC): 274.0 cpm | RT ACTIVITY MEAN (32 μg/ml, ROJO in PBMC): 68.0 cpm | RT ACTIVITY MEAN (100 μg/ml, ROJO in PBMC): 49.3 cpm | IC50 (Human immunodeficiency virus 1, PBMC, PBMCs, read-out: 50% inhibition of virus replication): 2.5 µg/mL (≈ 2.74 µM) | activity at 0.01 µg/mL (Human immunodeficiency virus 1, 0.01 μg/ml, ROJO in PBMC, read-out: RT ACTIVITY % VC): 90.8% | activity at 0.032 µg/mL (Human immunodeficiency virus 1, 0.032 μg/ml, ROJO in PBMC, read-out: RT ACTIVITY % VC): 105% | activity at 0.1 µg/mL (Human immunodeficiency virus 1, 0.1 μg/ml, ROJO in PBMC, read-out: RT ACTIVITY % VC): 82.2% | activity at 0.32 µg/mL (Human immunodeficiency virus 1, 0.32 μg/ml, ROJO in PBMC, read-out: RT ACTIVITY % VC): 82% | activity at 1 µg/mL (Human immunodeficiency virus 1, 1 μg/ml, ROJO in PBMC, read-out: RT ACTIVITY % VC): 91% | activity at 3.2 µg/mL (Human immunodeficiency virus 1, 3.2 μg/ml, ROJO in PBMC, read-out: RT ACTIVITY % VC): 32.3% | activity at 10 µg/mL (Human immunodeficiency virus 1, 10 μg/ml, ROJO in PBMC, read-out: RT ACTIVITY % VC): 3.8% | activity at 32 µg/mL (Human immunodeficiency virus 1, 32 μg/ml, ROJO in PBMC, read-out: RT ACTIVITY % VC): 0.9% | activity at 100 µg/mL (Human immunodeficiency virus 1, 100 μg/ml, ROJO in PBMC, read-out: RT ACTIVITY % VC): 0.7% | IC50 (Human immunodeficiency virus 1, ROJO in PBMC, RT activity, read-out: IC50): 2.54 µg/mL (≈ 2.78 µM) | concentrations at which active in PBMCs (PBMCs): greater than 3.2 μg/mL

Source: patent US6699989B1, “Antiviral and antimicrobial guanidine or biguanidine derivatives” (priority 2000, dated 2004)
